From ChEMBL document CHEMBL4406802, “Human disorders associated with inflammation and the evolving role of natural products to overcome” (Eur J Med Chem, 2019)
Values after ≈ are worked out from the molar mass of the structure shown. Each block holds one compound with its values, some of them ahead of it.

What was measured:
RAW264.7 [1] = test: Antiinflammatory activity in mouse RAW264.7 cells assessed as inhibition of LPS-induced nitric oxide production after 24 hrs; format: functional, cell-based; conditions: RAW264.7, 24 h
[2] = Inhibition of soybean 15-LOX using linoleic acid as substrate preincubated for 5 mins followed by substrate addition and measured after 20 mins by spectrophotometric analysis; parameters: species or system Glycine max
RAW264.7 [3] = test: Antiinflammatory activity against mouse RAW264.7 cells assessed as inhibition of LPS induced COX2 at 30 uM preincubated for 1 hr followed by LPS stimulation measured after 18 hrs relative to control; format: functional
RAW264.7 [4] = test: Antiinflammatory activity against mouse RAW264.7 cells assessed as inhibition of LPS induced iNOS at 30 uM preincubated for 1 hr followed by LPS stimulation measured after 18 hrs relative to control; format: functional
[5] = target: T1, Prostaglandin G/H synthase 2 (Homo sapiens) (UniProt P35354); test: Inhibition of COX2 (unknown origin) at 20 uM relative to control
T1 sequence (whole entry): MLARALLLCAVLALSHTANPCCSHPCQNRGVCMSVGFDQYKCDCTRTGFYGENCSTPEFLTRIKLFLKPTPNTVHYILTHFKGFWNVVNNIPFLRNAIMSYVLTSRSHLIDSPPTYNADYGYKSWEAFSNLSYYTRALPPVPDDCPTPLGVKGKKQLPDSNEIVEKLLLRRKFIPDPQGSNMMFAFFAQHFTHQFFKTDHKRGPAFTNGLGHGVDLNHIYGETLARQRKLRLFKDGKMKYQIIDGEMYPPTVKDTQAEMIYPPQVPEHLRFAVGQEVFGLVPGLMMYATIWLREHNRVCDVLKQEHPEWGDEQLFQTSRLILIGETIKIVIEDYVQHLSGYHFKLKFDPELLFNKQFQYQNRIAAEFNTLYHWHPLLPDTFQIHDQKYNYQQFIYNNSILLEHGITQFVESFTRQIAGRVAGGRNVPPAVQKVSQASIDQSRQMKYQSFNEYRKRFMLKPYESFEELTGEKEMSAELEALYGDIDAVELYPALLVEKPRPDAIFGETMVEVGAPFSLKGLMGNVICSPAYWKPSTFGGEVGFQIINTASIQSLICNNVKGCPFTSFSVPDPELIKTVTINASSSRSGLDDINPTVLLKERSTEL

THP-1 = test: Antiinflammatory activity against human THP1 cells assessed as inhibition of LPS induced TNF-alpha at 100 uM preincubated for 30 mins followed by LPS stimulation measured after 24 hrs by ELISA relative to control; format: functional
[6] = target: Prostaglandin G/H synthase 2 (Homo sapiens) (UniProt P35354); test: Inhibition of COX2 (unknown origin) at 0.01 mM using arachidonic acid as substrate preincubated for 15 mins followed by arachidonic acid addition measured after […] by ELISA relative to control
[7] = target: T2, Polyunsaturated fatty acid 5-lipoxygenase (Homo sapiens) (UniProt P09917); test: Inhibition of 5-lox (unknown origin) at 20 uM relative to control
T2 sequence (whole entry): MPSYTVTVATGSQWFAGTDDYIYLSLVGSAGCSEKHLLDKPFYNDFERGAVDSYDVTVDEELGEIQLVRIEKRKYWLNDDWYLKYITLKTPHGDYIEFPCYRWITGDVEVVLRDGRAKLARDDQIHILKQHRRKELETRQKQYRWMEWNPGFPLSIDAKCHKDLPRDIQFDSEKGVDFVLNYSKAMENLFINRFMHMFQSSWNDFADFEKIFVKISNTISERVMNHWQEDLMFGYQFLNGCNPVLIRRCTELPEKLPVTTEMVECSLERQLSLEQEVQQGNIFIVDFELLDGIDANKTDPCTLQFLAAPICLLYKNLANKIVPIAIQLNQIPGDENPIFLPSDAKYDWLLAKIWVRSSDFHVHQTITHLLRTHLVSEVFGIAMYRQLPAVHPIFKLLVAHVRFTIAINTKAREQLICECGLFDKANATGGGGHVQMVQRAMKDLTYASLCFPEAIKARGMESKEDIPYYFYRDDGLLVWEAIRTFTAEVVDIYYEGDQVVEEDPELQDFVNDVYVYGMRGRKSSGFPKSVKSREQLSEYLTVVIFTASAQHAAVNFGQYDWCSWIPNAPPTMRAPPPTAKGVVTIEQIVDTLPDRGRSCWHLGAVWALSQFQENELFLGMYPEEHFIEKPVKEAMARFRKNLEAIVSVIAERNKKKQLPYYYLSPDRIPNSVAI

[8] = target: T3, Prostaglandin G/H synthase 1 (Ovis aries, UniProt P05979); test: Inhibition of ovine COX1
T3 sequence (P05979 whole entry): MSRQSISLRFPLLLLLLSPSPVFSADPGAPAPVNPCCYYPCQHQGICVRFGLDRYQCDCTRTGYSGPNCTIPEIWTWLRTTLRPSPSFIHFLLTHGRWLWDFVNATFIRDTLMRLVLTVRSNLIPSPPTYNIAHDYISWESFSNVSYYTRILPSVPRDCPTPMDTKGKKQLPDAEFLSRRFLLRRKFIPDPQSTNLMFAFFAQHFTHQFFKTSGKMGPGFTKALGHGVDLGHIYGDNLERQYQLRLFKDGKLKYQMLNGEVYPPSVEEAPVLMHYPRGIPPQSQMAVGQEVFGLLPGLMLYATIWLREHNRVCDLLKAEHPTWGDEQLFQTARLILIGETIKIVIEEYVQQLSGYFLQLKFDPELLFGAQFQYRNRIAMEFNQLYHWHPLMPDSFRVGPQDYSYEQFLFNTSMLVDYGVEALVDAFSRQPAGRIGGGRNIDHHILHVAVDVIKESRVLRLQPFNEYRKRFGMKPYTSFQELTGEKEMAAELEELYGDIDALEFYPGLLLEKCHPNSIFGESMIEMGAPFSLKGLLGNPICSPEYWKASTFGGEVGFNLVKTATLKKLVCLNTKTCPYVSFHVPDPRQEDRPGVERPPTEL

[9] = target: T4, Prostaglandin G/H synthase 2 (Ovis aries, UniProt P79208); test: Inhibition of ovine COX2
T4 sequence (P79208 whole entry): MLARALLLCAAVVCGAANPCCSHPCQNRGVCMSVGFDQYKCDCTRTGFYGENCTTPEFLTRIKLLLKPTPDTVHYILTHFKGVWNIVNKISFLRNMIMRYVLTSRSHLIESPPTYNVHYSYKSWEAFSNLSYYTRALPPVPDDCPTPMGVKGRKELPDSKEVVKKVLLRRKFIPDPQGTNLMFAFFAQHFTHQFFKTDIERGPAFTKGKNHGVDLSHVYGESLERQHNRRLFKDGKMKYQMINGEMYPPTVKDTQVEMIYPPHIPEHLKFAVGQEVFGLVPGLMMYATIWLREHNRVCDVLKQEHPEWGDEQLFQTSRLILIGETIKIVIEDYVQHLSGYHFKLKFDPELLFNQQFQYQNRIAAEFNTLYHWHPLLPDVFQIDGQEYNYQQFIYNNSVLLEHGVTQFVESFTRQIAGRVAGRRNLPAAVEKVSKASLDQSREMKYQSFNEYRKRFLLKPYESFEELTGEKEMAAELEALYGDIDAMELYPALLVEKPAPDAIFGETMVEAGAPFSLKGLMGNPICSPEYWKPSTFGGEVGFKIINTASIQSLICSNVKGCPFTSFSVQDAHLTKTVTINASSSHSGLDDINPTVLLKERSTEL

[10] = target: T1, Prostaglandin G/H synthase 2 (Homo sapiens); test: Inhibition of N-terminal His6-tagged recombinant human COX2 expressed in baculovirus infected sf21 cells at 20 uM relative to control
[11] = target: T5, Nitric oxide synthase, inducible (Homo sapiens, UniProt P35228); test: Inhibition of iNOS (unknown origin) at 20 uM relative to control
T5 sequence (P35228 whole entry): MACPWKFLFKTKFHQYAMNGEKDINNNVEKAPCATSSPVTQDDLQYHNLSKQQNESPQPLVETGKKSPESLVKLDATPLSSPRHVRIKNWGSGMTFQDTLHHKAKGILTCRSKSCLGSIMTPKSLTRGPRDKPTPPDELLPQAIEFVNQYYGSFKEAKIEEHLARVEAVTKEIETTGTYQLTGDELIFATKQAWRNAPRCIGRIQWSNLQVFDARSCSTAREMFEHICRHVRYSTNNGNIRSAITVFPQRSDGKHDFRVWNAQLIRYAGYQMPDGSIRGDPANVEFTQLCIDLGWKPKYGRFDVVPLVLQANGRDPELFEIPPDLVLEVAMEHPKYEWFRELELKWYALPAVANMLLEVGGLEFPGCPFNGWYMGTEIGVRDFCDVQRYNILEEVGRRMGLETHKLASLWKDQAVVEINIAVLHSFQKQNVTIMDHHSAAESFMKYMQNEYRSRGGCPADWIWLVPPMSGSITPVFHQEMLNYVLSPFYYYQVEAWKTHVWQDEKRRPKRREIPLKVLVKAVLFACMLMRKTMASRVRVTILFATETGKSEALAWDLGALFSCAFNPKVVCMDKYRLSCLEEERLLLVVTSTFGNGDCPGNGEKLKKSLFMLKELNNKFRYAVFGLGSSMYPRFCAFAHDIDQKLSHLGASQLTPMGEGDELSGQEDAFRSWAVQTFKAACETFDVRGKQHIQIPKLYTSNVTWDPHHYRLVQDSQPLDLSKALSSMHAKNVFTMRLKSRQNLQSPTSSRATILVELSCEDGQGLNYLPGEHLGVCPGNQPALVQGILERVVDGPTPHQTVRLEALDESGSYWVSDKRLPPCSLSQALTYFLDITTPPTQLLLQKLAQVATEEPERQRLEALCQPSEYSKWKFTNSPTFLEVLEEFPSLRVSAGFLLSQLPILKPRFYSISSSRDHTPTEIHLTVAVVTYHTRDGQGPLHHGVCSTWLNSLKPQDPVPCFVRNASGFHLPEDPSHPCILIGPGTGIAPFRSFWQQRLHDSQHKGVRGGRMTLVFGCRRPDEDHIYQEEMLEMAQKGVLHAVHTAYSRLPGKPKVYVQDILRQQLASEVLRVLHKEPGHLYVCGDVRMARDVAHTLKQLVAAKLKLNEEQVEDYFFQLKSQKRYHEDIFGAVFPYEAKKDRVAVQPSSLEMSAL

Interleukin-1 beta = Interleukin-1 beta (Homo sapiens, UniProt P01584); test: Inhibition of IL1-beta (unknown origin)
Interleukin-1 beta, sequence (P01584 117-269 limits assumed): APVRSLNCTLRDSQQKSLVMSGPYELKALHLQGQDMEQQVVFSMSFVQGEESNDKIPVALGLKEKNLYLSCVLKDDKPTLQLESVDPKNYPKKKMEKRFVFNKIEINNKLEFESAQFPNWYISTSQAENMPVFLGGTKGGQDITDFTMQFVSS

[12] = target: T5, Nitric oxide synthase, inducible; test: Inhibition of iNOS (unknown origin)

IC50 (RAW264.7 [1]): 3.32 µM
Compound: C=CC(C)(CCC=C(C)C)c1c(O)cc2c(c1O)C(=O)C[C@@H](c1ccc(O)c(O)c1)O2 (stereo partly specified)

IC50 [2]: 0.04305 mg/L (≈ 0.0714 µM)
Compound: C=C(C)[C@H](CC=C(C)C)C[C@]12C[C@H](CC=C(C)C)C(C)(C)[C@](CC=C(C)C)(C(=O)C(C(=O)c3ccc(O)c(O)c3)=C1O)C2=O

Compound: C=C1CC[C@]2(C(=O)O[C@@H]3O[C@H](CO)[C@@H](O)[C@H](O)[C@H]3O)CC[C@]3(C)C(=CC[C@@H]4[C@@]5(C)CC[C@H](O[C@@H]6OC[C@@H](O)[C@H](O)[C@H]6O[C@@H]6O[C@H](CO)[C@@H](O)[C@H](O)[C@H]6O)C(C)(C)[C@@H]5CC[C@]43C)[C@@H]2[C@H]1C
inhibition at 30 µM (RAW264.7 [3]): 40.9%
inhibition at 30 µM (RAW264.7 [4]): 75.9%

inhibition [5]: 16.6%
Compound: CCCCCC(=O)/C=C/C=C\CCCCCCCC(=O)O

Compound: C[C@@H]1O[C@@H](Oc2c(-c3cc(O)c(O)c(O)c3)oc3cc(O)cc(O)c3c2=O)[C@H](O)[C@H](O)[C@H]1O
inhibition at 100 µM (THP-1): 19.5%

inhibition [6]: 83.3%
Compound: CC1(C)NC(CCc2ccc(O)cc2)CC(=O)C1Cc1ccc(O)cc1 (stereo unspecified)

inhibition [7]: 16.1%
Compound: COc1cc(C2Oc3cc(/C=C/COC(=O)CC(C)C)cc(OC)c3OC2COC(=O)CC(C)C)cc(OC)c1O (stereo unspecified)

IC50 [8]: 300 µM
IC50 [9]: 830 µM
Compound: CC(C)=CCCC(C(=O)O)C1CNC(=N)N1 (stereo unspecified)

inhibition [10]: 98.6%
inhibition [11]: 100%
Compound: C=C1C(=O)O[C@@H]2[C@H]3[C@@H](C)C(=O)C[C@H]3C(=C)CC[C@@H]12

inhibition [10]: 97%
inhibition [11]: 99.4%
Compound: C=C1[C@@H]2[C@H]3OC(=O)C(=C)[C@@H]3CCC(=C)[C@@H]2C[C@@H]1O

IC50 (Interleukin-1 beta): 7.8 µM
IC50 [12]: 7.8 µM
Compound: C/C=C(\C)C(=O)O[C@H]1[C@H](OC(C)=O)[C@@]23C[C@@]1(O)O[C@H]1C[C@]4(C)C(=CC[C@H]4c4ccoc4)[C@](C)(C(=O)C[C@H]2C(C)C)C13 (stereo partly specified)
